Test results taken from patent EP0433457B1, “ANTIPRURITIC COMPOSITION” (SHISEIDO COMPANY LIMITED, priority 1989, dated 1990).
Structures can show the parent of a compound that is named as a salt.

Assays:
pruritus of bradykinin [1] = test: Antipruritic effect test (therapeutical test), bradykinin pruriogeneic animal, sample applied 5 minutes after bradykinin; format: in vivo, Hartley-strain male guinea pigs; settings: 1 wt.%
Procedure: (§1) Using healthy Hartley-strain male guinea pigs, bradykinin, which is a pruriogeneic substance, was intradermally introduced at the side abdominal part to obtain a pruriogeneic animal.
(§2) The pruriginous behaviors were rated according to the standards shown below, and represented as pruriginous activity.
(§3) For four or six guinea pigs of one group, the above-mentioned behavior observation was conducted by three or more members at the same time for 20 minutes, and the pruriginous activity (score) determined as an average value ± standard deviation of the evaluation scores, and the antripruritic effect judged by the significance difference test with the Vehicle control group according to the Student's T test.
Healthy guinea pigs (weighing 450 - 600 g) depilated at the right abdominal side part on the previous day were divided into three groups of 6.
Using the same test methods as described above, the zinc picolinate preparation and the crotamiton preparation each of 1% concentration were examined by comparison with the Vehicle control group.

[2] = test system: histamine pruriogeneic animal; test: Antipruritic effect test of histamine pruriogeneic animal (therapeutical test); format: in vivo, Hartley-strain male guinea pigs; settings: Table 10; 3 wt.%, 0.1 ml applied five minutes after histamine 50 µg/0.05 ml intradermal; vehicle control 16.6 ± 0.5
[3] = test system: kallikrein pruriogeneic animal; test: Antipruritic test of kallikrein pruriogeneic animal (therapeutical test); format: in vivo, Hartley-strain male guinea pigs
Description: There is already known a pruriogeneic substance other than bradyokinin which cannot be inhibited by antihistamines; namely, kallikrein (International Journal of Dermatology, Vol. 14, pages 465 - 484, 1975).
Using healthy Hartley-strain male guinea pigs, bradykinin, which is a pruriogeneic substance, was intradermally administered at the side abdominal part to obtain a pruriogeneic animal.
The pruriginous behaviors were rated according to the standards shown below and represented as pruriginous activity.
as §3, with “For” for “For four or”
Healthy male guinea pigs (weighing 450 - 600 g) depilated at the right abdominal side part by electrical clippers on the previous day were divided into three groups of six.
Using the same test method as in 4-1, animals were divided into four groups of 6.

plasmin = biological target: T1, plasmin (Homo sapiens, UniProt P00747); test: Antiplasmin activity, fibrin plate method; format: biochemical; settings: 50% inhibition of fibrinolytic activity by plasmin; pre-incubation 37°C 30 minutes
T1 construct: purchased Sigma
T1 sequence (P00747 581-810 limits assumed, species assumed): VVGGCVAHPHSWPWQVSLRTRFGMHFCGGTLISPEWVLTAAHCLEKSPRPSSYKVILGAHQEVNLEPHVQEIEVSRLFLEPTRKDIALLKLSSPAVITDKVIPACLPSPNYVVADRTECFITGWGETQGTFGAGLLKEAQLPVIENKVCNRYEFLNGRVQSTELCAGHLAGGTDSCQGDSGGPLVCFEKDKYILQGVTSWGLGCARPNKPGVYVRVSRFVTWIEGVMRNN
T1 sequence (P00747 97-580 limits assumed, species assumed): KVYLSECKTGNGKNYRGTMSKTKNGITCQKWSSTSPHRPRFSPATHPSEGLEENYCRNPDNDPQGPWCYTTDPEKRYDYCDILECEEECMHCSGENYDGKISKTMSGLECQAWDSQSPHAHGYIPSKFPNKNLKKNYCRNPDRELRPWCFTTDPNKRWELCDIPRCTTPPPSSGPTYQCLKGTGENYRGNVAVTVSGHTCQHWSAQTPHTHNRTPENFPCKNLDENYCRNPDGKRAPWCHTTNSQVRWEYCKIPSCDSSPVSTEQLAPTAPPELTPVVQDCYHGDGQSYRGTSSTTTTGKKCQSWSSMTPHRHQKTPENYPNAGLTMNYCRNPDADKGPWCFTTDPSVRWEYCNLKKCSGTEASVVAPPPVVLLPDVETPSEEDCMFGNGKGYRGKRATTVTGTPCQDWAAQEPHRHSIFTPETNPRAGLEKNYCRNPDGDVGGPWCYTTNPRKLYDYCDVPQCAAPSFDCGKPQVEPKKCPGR
Procedure: The antiplasmin active action was determined as the sample amount necessary for a 50% inhibition (IC₅₀: mg/ml) from the inhibition ratio of the fibrinolytic activity by plasmin, by using the fibrin plate method.
A fibrin plate was prepared according to the method of Warren et al. (Hemostasis Vol. 4, page 110, 1975) by dissolving under heating 100 mg of agarose in 5 ml of a 0.01 M phosphate buffer supplemented with 0.15 M sodium chloride, followed by cooling to 50°C. In this solution was dissolved 10 mg of a plasminogen free fibrinogen (Daiichi Kagaku Yakuhin), and after 0.1 ml of a thrombin solution (100 units/ml, Mochida Seiyaku) was dropwise added to the solution, the mixture was immediately poured into a laboratory dish (diameter 9 cm, Terumo) and left to cool, to be thereby solidified. A plasminogen free fibrin plate was prepared. By forming a well 6 mm in diameter at the center of the dish.

pruritus of bradykinin [4] = test: Antipruritic effect test, bradykinin pruriogeneic animal, sample applied immediately before bradykinin; format: in vivo, Hartley-strain male guinea pigs; settings: bradykinin 10 µg/0.1 ml
Procedure: as §1, §2, §3
Immediately thereafter, bradykinin 10 µg/0.1 ml was subcutaneously administered at the same applied site, and the score (average value ± standard deviation) of pruriginous activity by pruriginous behaviors was examined by comparison.
As described above in (1), healthy male guinea pigs (weighing 450 - 600 g) depilated at the right abdominal side part by electrical clippers on the previous day were divided into four groups each of four, of which one group was externally applied at the right abdominal side part with only the vehicle for external application (Vehicle control), and other groups with respective preparations of a mixture group of 1.24% by weight of picolinic acid and 2.88% by weight of zinc sulfate corresponding respectively to the picolinic acid amount and the zinc amount of 3% by weight of zinc picolinate, a 2.88% by weight zinc sulfate single substance group and a 3.17% by weight of zinc pyrithione group corresponding to the zinc amount in each 0.1 ml amount. Immediately thereafter, bradykinin 10 µg/0.1 ml was subcutaneously administered at the same applied site, and the score of pruriginous activity by pruriginous behaviors was examined by comparison.

bradykinin = test: Antipruritic effect test (therapeutical test) of chelated zinc compounds other than zinc picolinate, bradykinin; format: in vivo, guinea pigs; settings: 1% (by weight), 0.1 ml applied 5 minutes after bradykinin 50 µg/0.5 ml intradermal; average score compared with Vehicle control group; 85% or less judged effective
Procedure: Healthy male guinea pigs (weighing 450 - 600 g) depilated at the right abdominal side part by electrical clippers on the previous day were divided into three groups of 6. At the right abdominal side part was intradermally administered 50 µg/0.5 ml of bradykinin, and 5 minutes later, one group was externally applied at the site where bradykinin had been applied with only the vehicle for external application (Vehicle control), and other groups with each 1% (by weight) concentration of samples in each 0.1 ml amount, and the average value of the scores of antipruritic activity by pruriginous behaviors was examined by comparison with the Vehicle control group.
The antipruritic effect was judged to be effective for an average value of the scores of 85% or less.

[5] = test system: skin (Futat skin and Abraded skin); settings: rabbit, in vivo
Procedure: The test was conducted according to the method of the FDA method (U.S. Food and Drug Administration method).
Eight Japanese White species rabbits weighing 2.3 to 3 kg were depilated at the back by electrical clippers and divided into two groups of four, one group being as such (Futat skin) and the other group having an abrasion made at the testing side (Adraded skin), and were fixed on a fixer. An amount of 0.3 ml of the test substance was applied to the skin by a sticking plaster for an animal test having a lint cloth 25 mm in diameter. After 24 hours, the sticking plaster was removed, and the reaction of the skin evaluated in terms of the degrees of erythema and edema, according to the following standards. The judgement was again performed 72 hours later.
The skin primary irritation evaluation score is shown by an average value obtained by adding average values of a judgement of the formation of erythema and edema after 24 and 72 hours for four rabbits with Futat skin and Abraded skin, and dividing the value by the animal test sample number of 4.
The standards of the evaluation score (average value) of the skin safety is as shown below. Evaluation score less than 2: slight irritation or substantially no irritation Evaluation score of 2 - 5: moderate irritation Evaluation score of 5 or more: strong irritation The results are shown in Table-2.

[6] = test system: rats (Sprague Dawley strain); test: Acute toxicity tests; format: in vivo
Procedure: First, the toxicity of the antipruritic agent according to the present invention was examined. Acute toxicity tests were conducted by using healthy 5 to 6 weeks old male and female rats (Sprague Dawley strain). An oral administration was made by suspending zinc picolinate in 20% carboxymethyl cellulose, and a subcutaneous administration was made by suspending zinc picolinate in 10% carboxylmethyl cellulose.

[7] = Table 7, same test methods as above (therapeutical test, bradykinin), vehicle control 35.4 ± 3.1
[8] = Table 9, 3 wt.%, 0.1 ml applied after kallikrein intradermal, vehicle control 18.68 ± 2.06
[9] = Table 5, 0.1 ml applied 5 minutes after bradykinin 50 µg/0.05 ml intradermal, vehicle control 30.1 ± 3.6

Which “Pruritic activity/20 min.” value (pruritus of bradykinin [1]; [7]) does the source give for CC=CC(=O)N(CC)c1ccccc1C [Crotamiton, reference compound] here?
The value was 29.3 ± 3.3.

And the “Pruritic activity/20 min.” value [2]?
Its value is 18.9 ± 2.5.

What about the “Pruritic activity/20 min.” value [3, 8] of the same molecule?
Its value is 15.15 ± 1.92.

Which IC₅₀ (plasmin) does the source give for CN(C)CCOC(c1ccccc1)c1ccccc1 [Diphenhydramine hydrochloride, reference compound] here?
The IC₅₀ was “No action at 10 mg/ml”.

What does the source list for CN(C)CCOC(c1ccccc1)c1ccccc1 [Diphenhydramine, reference compound]?
Pruritic activity/20 min. (pruritus of bradykinin [1]; [9]): 27.9 ± 2.0; Pruritic activity/20 min. (pruritus of bradykinin [4]; Table 4, 1 wt.%, 0.1 ml external, mean ± SD, vehicle control 45.7 ± 5.7): 36.9 ± 3.0; Pruritic activity/20 min. [2]: 12.4 ± 0.5; Pruritic activity/20 min. [3, 8]: 17.00 ± 1.26

For zinc 3-hexyloxypicolinate [J], which “Pruritic activity score (%)” value (bradykinin) is on record?
Its value is 75.7%.

For zinc 3-hydroxypicolinate, which “Pruritic activity score (%)” value (bradykinin) is on record?
Its value is 58.0%.

For “zinc 3-methylpicolinate [Compound No. B]”, which “Pruritic activity score (%)” value (bradykinin) is on record?
The value was 65.9%.

Which “Pruritic activity score (%)” value (bradykinin) does the source give for “zinc 3-propoxypicolinate [Compound No. D]” here?
Its value is 41.2%.

For “zinc 3-undecylpicolinate [Compound No. M]”, which “Pruritic activity score (%)” value (bradykinin) is on record?
Its value is 70.1%.

With “zinc 4-carboxypicolinate [Compound No. S]” as the molecule, how does the “Pruritic activity score (%)” value (bradykinin) read?
The value was 66.3%.

For “zinc 4-chloropicolinate [Compound No. R]”, which “Pruritic activity score (%)” value (bradykinin) is on record?
The value was 18.5%.

For “zinc 4-methylpicolinate [Compound No. C]”, which “Pruritic activity score (%)” value (bradykinin) is on record?
The value was 74.1%.

Which “Pruritic activity score (%)” value (bradykinin) does the source give for zinc 4-nitropicolinate [Compound No. Q] here?
Its value is 58.3%.

For “zinc 4-t-butylpicolinate [Compound No. I]”, which “Pruritic activity score (%)” value (bradykinin) is on record?
Its value is 63.3%.

For “zinc 4-undecylpicolinate [Compound No. N]”, which “Pruritic activity score (%)” value (bradykinin) is on record?
The value was 64.4%.

With “zinc 5-(2-ethylhexyloxy)picolinate [Compound No. L]” as the molecule, how does the “Pruritic activity score (%)” value (bradykinin) read?
Its value is 60.3%.

With “zinc 5-butoxypicolinate [Compound No. G]” as the molecule, how does the “Pruritic activity score (%)” value (bradykinin) read?
The value was 66.2%.

For “zinc 5-propoxypicolinate [Compound No. E]”, which “Pruritic activity score (%)” value (bradykinin) is on record?
The value was 81.5%.

Which “Pruritic activity score (%)” value (bradykinin) does the source give for “zinc 6-butoxypicolinate [Compound No. H]” here?
Its value is 71.8%.

For “zinc 6-hexyloxypicolinate [Compound No. K]”, which “Pruritic activity score (%)” value (bradykinin) is on record?
The value was 74.8%.

Which “Pruritic activity score (%)” value (bradykinin) does the source give for “zinc 6-undecylpicolinate [Compound No. O]” here?
The value was 65.0%.

With zinc picolinate as the molecule, how does the “Skin primary irritation evaluation score” value [5] read?
The value was 1.6.

What about the “Pruritic activity/20 min.” value (pruritus of bradykinin [1]; [9]) of the same molecule?
The value was 14.9 ± 0.3.

And the “Pruritic activity/20 min.” value (pruritus of bradykinin [1]; [7])?
Its value is 12.7 ± 0.7.

What about the LD₅₀ value ([6]; Female rats, Oral) of the same molecule?
The LD₅₀ value was over 2000 mg/kg.

And the Lethality ([6]; Female rats, Oral, dose 200 mg/kg, suspended in 20% carboxymethyl cellulose)?
Its Lethality is 0/5.

What about the Lethality ([6]; Female rats, Subcutaneous, dose 70 mg/kg) of the same molecule?
Its Lethality is 0/5.

What about the Lethality ([6]; Female rats, Subcutaneous, dose 91 mg/kg) of the same molecule?
The Lethality was 0/5.

What about the Lethality ([6]; Female rats, Subcutaneous, dose 118 mg/kg) of the same molecule?
The Lethality was 2/5.

What about the Lethality ([6]; Female rats, Subcutaneous, dose 154 mg/kg) of the same molecule?
Its Lethality is 5/5.

What about the Lethality ([6]; Female rats, Subcutaneous, dose 200 mg/kg) of the same molecule?
The Lethality was 5/5.

What about the LD₅₀ value ([6]; Female rats, Subcutaneous, suspended in 10% carboxylmethyl cellulose) of the same molecule?
The LD₅₀ value was 122 mg/kg.

And the LD₅₀ value ([6]; Male rats, Oral)?
Its LD₅₀ value is over 2000 mg/kg.

And the Lethality ([6]; Male rats, Oral, dose 200 mg/kg, suspended in 20% carboxymethyl cellulose)?
Its Lethality is 0/5.

What about the Lethality ([6]; Male rats, Subcutaneous, dose 70 mg/kg) of the same molecule?
Its Lethality is 0/5.

What about the Lethality ([6]; Male rats, Subcutaneous, dose 91 mg/kg) of the same molecule?
The Lethality was 1/5.

And the Lethality ([6]; Male rats, Subcutaneous, dose 118 mg/kg)?
The Lethality was 2/5.

And the Lethality ([6]; Male rats, Subcutaneous, dose 154 mg/kg)?
Its Lethality is 4/5.

And the Lethality ([6]; Male rats, Subcutaneous, dose 200 mg/kg)?
The Lethality was 5/5.

What about the LD₅₀ value ([6]; Male rats, Subcutaneous, suspended in 10% carboxylmethyl cellulose) of the same molecule?
Its LD₅₀ value is 121 mg/kg.

What about the “Pruritic activity/20 min.” value (pruritus of bradykinin [4]; Table 4, 0.01 wt.%, 0.1 ml external, mean ± SD, vehicle control 45.7 ± 5.7) of the same molecule?
The value was 17.5 ± 2.4.

What about the “Pruritic activity/20 min.” value (pruritus of bradykinin [4]; Table 4, 10 wt.%, 0.1 ml external, mean ± SD, vehicle control 45.7 ± 5.7) of the same molecule?
The value was 15.5 ± 1.6.

And the “Pruritic activity/20 min.” value (pruritus of bradykinin [4]; Table 6, 3 wt.%, 0.1 ml, vehicle control 40.1 ± 6.7)?
Its value is 17.7 ± 1.4^*1.

What about the “Pruritic activity/20 min.” value [2] of the same molecule?
Its value is 7.4 ± 0.5.

And the “amount soluble in water as such” value?
The value was at most 0.5 % by weight.

What about the IC₅₀ (plasmin) of the same molecule?
Its IC₅₀ is 2.3 mg/mL.

What about the “Pruritic activity/20 min.” value ([3]; Table 8, 0.01 wt.%, 0.1 ml applied five minutes after kallikrein 25 units/0.05 ml intradermal, vehicle control 19.95 ± 2.41) of the same molecule?
Its value is 12.95 ± 0.95.

What about the “Pruritic activity/20 min.” value ([3]; Table 8, 10 wt.%, 0.1 ml applied five minutes after kallikrein 25 units/0.05 ml intradermal, vehicle control 19.95 ± 2.41) of the same molecule?
The value was 12.85 ± 0.70.

And the “Pruritic activity/20 min.” value [3, 8]?
The value was 12.95 ± 0.95.

Which “Pruritic activity score (%)” value (bradykinin) does the source give for “zinc picolinate N-oxide [Compound No. P]” here?
The value was 85.0%.

With zinc pyrithione [reference compound] as the molecule, how does the “Pruritic activity/20 min.” value (pruritus of bradykinin [4]; Table 6, 3.17 wt.%, 0.1 ml, vehicle control 40.1 ± 6.7) read?
Its value is 43.4 ± 6.4.

With zinc sulfate [reference compound] as the molecule, how does the “Pruritic activity/20 min.” value (pruritus of bradykinin [4]; Table 6, 2.88 wt.%, 0.1 ml, vehicle control 40.1 ± 6.7) read?
Its value is 33.7 ± 5.2.
